The record followed here is patent US20250051324A1, “PARP INHIBITOR, PHARMACEUTICAL COMPOSITION COMPRISING SAME, AND USE THEREOF” (KEYTHERA (SUZHOU) BIO-PHARMACEUTICALS CO., LIMITED, priority 2021, published 2025).

The term IC50 denotes the concentration at which inhibition is half-maximal. As a reminder, the AUC(0-inf) is the area under the concentration-time curve extrapolated to infinity. Lower therefore signals low exposure. For orientation: Cmax means the peak of the concentration-time curve. In general, half-life refers to the time in which the quantity being followed falls by half. Usually microsomal CLint stands for the capacity of the preparation to metabolise the compound, expressed as a volume cleared per time. Read a low microsomal CLint as greater metabolic stability.

Like-named read-outs stand apart in the source and are kept apart here.

Series [1] concerns the target T1, PARP1 (Homo sapiens (Human), UniProt P09874). Description: PARP enzyme activity assay (PARP1 chemiluminescent assay kit). The series is classed as biochemical. As to conditions: enzyme inhibitory activity, read-out: PARP-1 IC50. The source says:
Experimental Materials: The PARP1 assay kit was purchased from BPS Bioscience, USA, specifically the 384-well chemiluminescent assay kit (Catalog No.: #80551).
Experimental Principle: PARP can catalyze the transfer of ADP-ribose residues from NAD+ to target substrates, thereby modifying proteins through ribosylation. This experiment measures PARP1 enzyme activity by detecting the poly(ADP-ribosylation) of histones by PARP1.
Preparation of Reagents and Test Compounds: The 10× assay buffer included in the kit was diluted to 1× with distilled water. The test compound (stock concentration of 10 mM) was diluted to 10 μM with a DMSO solution and then serially diluted in a 1:3 ratio. The serially diluted compounds were further diluted 10-fold with the 1× assay buffer.
Experimental Method: The procedure was carried out according to the kit's instructions:
1. The 5× histone mixture was diluted to 1× with PBS, and 25 μL was added to each well of a 384-well plate, incubating overnight at 4° C.
2. After incubation, 100 μL of PBST (0.05% Tween 20) was added to each well for washing, repeated three times. Then, 100 μL of blocking solution was added to each well and incubated at room temperature for 90 minutes.
3. After incubation, the wells were washed three times with PBST, and then 1.25 μL of 10× assay buffer, 1.25 μL of 10×PARP assay mixture, 2.5 μL of activation DNA (5×), and 7.5 μL of distilled water were added to each well.
4. […] The positive control group and the negative control group were added with 1× assay buffer containing the same concentration of DMSO.
5. Next, 10 μL of 2.5 ng/μL PARP1 enzyme was added to the test compound and positive control groups, while 10 μL of 1× assay buffer was added to the negative control group, and the mixture was incubated at room temperature for 60 minutes.
6. Streptavidin-HRP was diluted 1:50 with the blocking solution. After incubation, the plate was washed three times with PBST, and 25 μL of the diluted streptavidin-HRP solution was added to each well, incubating at room temperature for 30 minutes.
7. After incubation, the plate was washed three times with PBST, and 50 μL of the mixed substrate A and substrate B in equal volumes was added. The luminescence signal was immediately read on a Synergy HTX multi-mode reader.
8. Data analysis was performed using GraphPad Prism 8.0 software. The inhibition rate %=100*(average luminescence signal of the positive control group−luminescence signal of the compound)/(average luminescence signal of the positive control group−average luminescence signal of the negative control group). The IC50 value was obtained by plotting the logarithm of the compound concentration against the percentage inhibition rate.

The test system of series [2] is UWB1.289 ovarian cancer cells. Description: Cell proliferation assay, UWB1.289. In kind it is cell-based. Particulars: UWB1289, 168 h, read-out: UWB1.289 Cell IC50. The method, then:
(§1) Experimental Materials: MDA-MB-436 or UWB1.289 cell lines were purchased from Cobioer Biosciences Co. Ltd. (Nanjing, China). The STR identification results were a complete match, and mycoplasma testing was negative. MDA-MB-436 cells were cultured in DMEM complete medium containing 10% fetal bovine serum, 1% penicillin-streptomycin, 1% insulin, and 16 μg/mL glutathione; UWB1.289 cells were cultured in RMPI1640 complete medium containing 10% fetal bovine serum and 1% penicillin-streptomycin.
(§2) 1. MDA-MB-436 or UWB1.289 cells were cultured in the aforementioned medium (culture conditions: 37° C., 5.0% CO2 in air) until they reached the logarithmic growth phase. The cells were then digested with trypsin containing 0.25% EDTA, centrifuged at 1000 rpm, and the supernatant was discarded. Cell culture medium was added, and the cell suspension was adjusted to 2×10^4/mL after counting. 135 μL of the cell suspension per well was taken and cultured in a 96-well cell culture plate for 16 hours (culture conditions: 37° C., 5.0% CO2 in air).
(§3) 2. The test compounds, stored at a concentration of 10 mM, were diluted 2.5 times with DMSO and then serially diluted in a 1:3 gradient (9 gradients). The gradient-diluted samples were further diluted 40 times with serum-free medium, and 15 μL of each was added to the 96-well cell culture plate. The positive control group received serum-free medium containing the same concentration of DMSO, and the negative control group received medium without cells. The cells were then cultured for an additional 7 days.
(§4) 3. After the culture period, the cell culture plate was placed at room temperature for 30 minutes. Then, 100 μL of CellCounting-Lite 2.0 reagent (Vazyme, #DD1101) was added to each well, mixed thoroughly, and incubated in the dark at room temperature for 10 minutes. The luminescence signal was read using a Synergy HTX multi-mode reader.
(§5) 4. Data analysis was performed using GraphPad Prism 8.0 software. The inhibition rate (%) was calculated as 100*(average luminescence signal of the positive control group−luminescence signal of the compound)/(average luminescence signal of the positive control group−average luminescence signal of the negative control group). The IC50 value was obtained by plotting the logarithm of the compound concentration against the percentage inhibition rate.

For series [3], the target named is T1, PARP1. Description: PARP1 trapping assay. In kind it is biochemical. Particulars: read-out: Inhibitory Effect on PARP1 Trapping IC50. The method, then: [table] […] 1. A 4× enzyme reaction mixture, comprising PARP1, PARP2, and GST-Tb antibody, was prepared with the buffer and 4 μL of the enzyme reaction mixture was added to a 384-well plate. 2. A 4×PARP1 and PARP2 probe reaction mixture was prepared with the buffer and 4 μL of the probe reaction mixture was added to the 384-well plate. 3. A series of gradient-diluted compounds were prepared and 4 μL of the diluted compounds were added to the 384-well plate, and incubated at room temperature for 45 minutes. 4. After incubation, 4 μL of 4×NAD reaction mixture was added to the 384-well plate and incubated at room temperature for 10 minutes. 5. After incubation, the plate was read using a plate reader. 6. Data Analysis: The percentage inhibition rate was calculated as follows: Inhibition Rate (%)=(Reading of Compound Group−Reading of Blank Group)/(Reading of Vehicle Control Group−Reading of Blank Group).

The subject of series [4] is MDA-MB-436 breast cancer cells. Description: Cell proliferation assay, MDA-MB-436. The series is classed as cell-based. Particulars: Homo sapiens, MDA-MB-436, 168 h, read-out: MDA-MB-436 Cell IC50. The method, then: as §1, §2, §3, §4, §5
Series [5] can be described thus: Evaluation of pharmacokinetics in mice. As to conditions: male, ICR (CD1), mouse, plasma, po, 10 mg/kg.
Procedure: Test Objective: The pharmacokinetics of the example compounds of the present application were tested in mice. By measuring the drug concentration in mouse plasma, the pharmacokinetic behavior of the compounds of the present invention was studied to evaluate their pharmacokinetic characteristics.
Test Animals: 6-8 Week Old Male ICR (CD1) Mice
Oral Gavage Drug Preparation: An appropriate amount of the test compound was first weighed and dissolved in DMSO (Macklin cas: 67-68-5) to prepare a 20 mg/mL solution. Then, 75 μL of this solution was added to 150 μL of Solutol (Sigma cas: 70142-34-6), followed by 1.275 mL of 20% Captisol (Selleck cas: 182410-00-0), resulting in a final drug concentration of 1 mg/mL.
Intravenous Injection Drug Preparation: An appropriate amount of the test compound was first weighed and dissolved in DMSO (Macklin cas: 67-68-5) to prepare a 30 mg/mL solution. Then, 15 μL of this solution was added to 150 μL of Solutol (Sigma cas: 70142-34-6), followed by 1.335 mL of 20% Captisol (Selleck cas: 182410-00-0), resulting in a final drug concentration of 0.3 mg/mL.
Procedures: The mice were fasted overnight with free access to water before the experiment. Food was restored two hours after dosing. Blood samples were collected at different time points after intravenous injection or oral gavage of the test compound in mice, and the compound concentration in plasma was measured. Approximately 50 μL of blood was collected from each animal using a capillary sampling tube via the orbital venous plexus, with heparin sodium as an anticoagulant. Blood samples were placed on ice, centrifuged at 3500 r/min for 10 minutes to separate the plasma, and 20 μL of the collected plasma was added to 200 μL of acetonitrile (Merck cas: 75-05-8) containing 200 nM dexamethasone (Selleck cas: 50-02-2) as an internal standard. The mixture was centrifuged at 8000 r/min for 20 minutes. After centrifugation, 150 μL of the supernatant was transferred to a new centrifuge tube, and 150 μL of 0.1% formic acid (Fisher cas: 207868) was added. The mixture was mixed well, and 5 μL of the sample was subjected to quantitative analysis by liquid chromatography-mass spectrometry (Q-TOF LC/MS).
The test compound was serially diluted with DMSO to cover the compound concentrations expected in plasma samples to be tested, with a blank sample (containing only DMSO) included.
2 μL of each diluted sample at various concentrations was added to 18 μL of normal ICR mouse plasma, mixed, and then added to 200 μL of acetonitrile (Merck cas: 75-05-8) containing 200 nM dexamethasone (Selleck cas: 50-02-2) as an internal standard. The mixture was centrifuged for 20 minutes (8000 r/min). 150 μL of the supernatant was transferred to a new centrifuge tube, and 150 μL of 0.1% formic acid (Fisher cas: 207868) was added. The mixture was mixed well, and 5 μL of the sample was subjected to quantitative analysis by liquid chromatography-mass spectrometry (Q-TOF LC/MS).
The final standard curve was plotted using the concentration of the test compound after dilution on the abscissa and the ratio of the signal of the compound to the internal standard (dexamethasone) on the ordinate. The standard curve was generated using linear regression with GraphPad Prism 8 software (R2>0.9900).
Data Analysis: calculation of pharmacokinetic parameters: the concentration of the test compound in plasma at different time points after intravenous injection or oral gavage in ICR mice was determined based on the above standard curve, and pharmacokinetic parameters (T1/2, Cmax, AUC, etc.) were calculated using the Phoenix WinNonlin 8.1 non-compartmental analysis model.
Series [6] is described as follows: Liver microsome metabolism assay. As to conditions: CD1, mouse, liver microsomes.
Procedure: Experimental Materials: Mixed CD1 mouse liver microsomal enzyme protein was purchased from Xenotech (#M1000), and NADPH was purchased from Abmole (#M9076).
1. To the liver microsomal enzyme reaction system, 210 μL of phosphate buffer was added, followed by 12.5 μL of liver microsomal enzyme at a concentration of 20 mg/mL. Then, 25 μL of NADPH at a concentration of 10 mM was added to the system, mixed well, and incubated in a 37° C. water bath with shaking for 10 minutes.
2. The test compound, stored at a concentration of 10 mM, was diluted to 100 μM with DMSO. Then, 2.5 μL of the diluted test compound was added to the reaction system, mixed well, and incubated in a 37° C. water bath with shaking.
3. At 0.5, 5, 10, 20, 30, and 60 minutes, 25 μL of the enzyme reaction mixture was taken and added to 125 μL of cold acetonitrile containing dexamethasone as an internal standard. The mixture was centrifuged at 4000 g for 20 minutes, and the supernatant was mixed with an equal volume of distilled water. The mixed sample was then subjected to quantitative analysis by liquid chromatography-mass spectrometry.
4. Calculation of in vitro drug metabolism half-life and drug clearance rate:
t1/2=−0.693/k. (k: the slope of the linear regression of the natural logarithm of the percentage of drug remaining versus incubation time).

T1 sequence (P09874 whole entry): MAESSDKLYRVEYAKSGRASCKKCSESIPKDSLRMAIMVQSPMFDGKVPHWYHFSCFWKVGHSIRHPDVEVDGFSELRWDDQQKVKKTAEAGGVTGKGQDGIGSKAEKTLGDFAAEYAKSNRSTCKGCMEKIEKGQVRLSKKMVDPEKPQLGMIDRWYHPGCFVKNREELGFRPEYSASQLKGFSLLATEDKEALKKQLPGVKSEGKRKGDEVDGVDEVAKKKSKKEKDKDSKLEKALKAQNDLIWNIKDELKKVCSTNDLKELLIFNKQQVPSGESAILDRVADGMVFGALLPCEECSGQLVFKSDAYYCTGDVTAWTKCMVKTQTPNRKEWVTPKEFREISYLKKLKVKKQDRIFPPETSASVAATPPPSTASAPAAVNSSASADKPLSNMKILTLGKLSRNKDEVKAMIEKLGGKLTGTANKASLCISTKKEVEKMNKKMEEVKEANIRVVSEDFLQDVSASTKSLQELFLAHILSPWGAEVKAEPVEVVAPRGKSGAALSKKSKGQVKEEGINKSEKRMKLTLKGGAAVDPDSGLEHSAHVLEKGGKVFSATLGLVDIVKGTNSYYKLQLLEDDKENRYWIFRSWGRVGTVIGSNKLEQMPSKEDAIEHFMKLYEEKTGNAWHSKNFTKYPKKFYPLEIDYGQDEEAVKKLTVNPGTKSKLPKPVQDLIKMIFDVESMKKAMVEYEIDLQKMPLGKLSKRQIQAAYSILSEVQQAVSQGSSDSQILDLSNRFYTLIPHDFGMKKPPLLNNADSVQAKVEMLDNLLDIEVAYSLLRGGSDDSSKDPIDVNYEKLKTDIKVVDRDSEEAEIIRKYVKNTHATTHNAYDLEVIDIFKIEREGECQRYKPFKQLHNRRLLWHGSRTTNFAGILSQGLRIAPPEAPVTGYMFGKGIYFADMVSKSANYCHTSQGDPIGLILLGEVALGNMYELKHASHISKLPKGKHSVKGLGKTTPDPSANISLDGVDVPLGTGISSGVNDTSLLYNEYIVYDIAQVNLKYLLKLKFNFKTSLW

Turning to `CNC(=O)c1ccc(N2CCN(Cc3cnc4c(C)c(C(F)(F)F)c(=O)[nH]c4c3)CC2C)cn1` (stereo not shown) [Compound 10, N-methyl-5-(2-methyl-4-((8-methyl-6-oxo-7-(trifluoromethyl)-5,6-dihydro-1,5-naphthyridin-3-yl)methyl)piperazin-1-yl)picolinamide], the IC50 in series [1] was found to be 2.79 nM; in series [2] (proliferation, 7 days), 15 nM.
On to `CNC(=O)c1ccc(N2CCN(Cc3cnc4c(C)c(C(F)(F)F)c(=O)[nH]c4c3)C(COC)C2)cn1` (stereo not shown) [Compound 8, 5-(3-(methoxymethyl)-4-((8-methyl-6-oxo-7-(trifluoromethyl)-5,6-dihydro-1,5-naphthyridin-3-yl)methyl)piperazin-1-yl)-N-methylpicolinamide], for which the IC50 in series [1] came out at 2.55 nM; in series [2] (proliferation, 7 days) it was 12.6 nM.
Consider `CNC(=O)c1ccc(N2CCN(Cc3cnc4c(C)c(C(F)(F)F)c(=O)[nH]c4c3)C(CC#N)C2)cn1` (stereo not shown) [Compound 3, 5-(3-(cyanomethyl)-4-((8-methyl-6-oxo-7-(trifluoromethyl)-5,6-dihydro-1,5-naphthyridin-3-yl)methyl)piperazin-1-yl)-N-methylpicolinamide], for which the IC50 in series [1] amounted to 1.53 nM.
On the same count and under the same terms, the figure for `CNS(=O)(=O)c1ccc(N2CCN(Cc3cnc4c(C)c(C(F)(F)F)c(=O)[nH]c4c3)CC2)cc1` [Compound 13, N-methyl-4-(4-((8-methyl-6-oxo-7-(trifluoromethyl)-5,6-dihydro-1,5-naphthyridin-3-yl)methyl)piperazin-1-yl)benzenesulfonamide] is 7.37 nM.
With `Cc1c(C(F)(F)F)c(=O)[nH]c2cc(CN3CCN(c4ccc(C#N)cn4)CC3)cnc12` [Compound 20, 6-(4-((8-methyl-6-oxo-7-(trifluoromethyl)-5,6-dihydro-1,5-naphthyridin-3-yl)methyl)piperazin-1-yl)nicotinonitrile], the IC50 in series [1] was found to be 1.26 nM; in series [2] (proliferation, 7 days), 26.6 nM.
In the case of `CNC(=O)c1ccc(N2CCN(Cc3cnc4c(C)c(C(F)(F)F)c(=O)[nH]c4c3)C(CCO)C2)cn1` (stereo not shown) [Compound 5, 5-(3-(2-hydroxyethyl)-4-((8-methyl-6-oxo-7-(trifluoromethyl)-5,6-dihydro-1,5-naphthyridin-3-yl)methyl)piperazin-1-yl)-N-methylpicolinamide], the IC50 in series [1] amounted to 27.2 nM.
`CNC(=O)c1ccc(N2CCN(Cc3cnc4c(C)c(C(F)F)c(=O)[nH]c4c3)CC2)cn1` [Compound 100, 5-(4-((7-(difluoromethyl)-8-methyl-6-oxo-5,6-dihydro-1,5-naphthyridin-3-yl)methyl)piperazin-1-yl)-N-methylpicolinamide]: the IC50 stood at 2.58 nM in series [3] and 2.05 nM in series [4].
As for `Cc1c(C(F)(F)F)c(=O)[nH]c2cc(CN3CCN(c4ccc5[nH]c(=O)[nH]c5n4)CC3)cnc12` [Compound 18, 4-methyl-7-((4-(2-oxo-2,3-dihydro-1H-imidazo[4,5-b]pyridin-5-yl)piperazin-1-yl)methyl)-3-(trifluoromethyl)-1,5-naphthyridin-2(1H)-one], in series [1], the half-inhibitory concentration (IC50) was found to be 15.9 nM.
For the compound `Cc1c(C(F)(F)F)c(=O)[nH]c2cc(CN3CCN(c4ccc(C(=O)NC5CC5)nc4)CC3)cnc12` [Compound 99, N-cyclopropyl-5-(4-((8-methyl-6-oxo-7-(trifluoromethyl)-5,6-dihydro-1,5-naphthyridin-3-yl)methyl)piperazin-1-yl)picolinamide], the IC50 was found to be 1.53 nM in series [3] and 1.69 nM in series [4] (proliferation, 7 days).
`CNC(=O)c1ccc(N2CCN(Cc3cnc4c(C)c(C(F)(F)F)c(=O)[nH]c4c3)CC2)c(F)n1` [Compound 93, 6-fluoro-N-methyl-5-(4-((8-methyl-6-oxo-7-(trifluoromethyl)-5,6-dihydro-1,5-naphthyridin-3-yl)methyl)piperazin-1-yl)picolinamide]: in series [3], the IC50 was 1.32 nM. The concentration for half-maximal inhibition (IC50) in series [2] is 2.67 nM. Further, in series [4], the IC50 was determined as 0.83 nM. In series [5], the AUC(0-inf) amounted to 796 µg·h/mL, the peak level (Cmax) was 31900 ng/mL and the half-life is 18.4 h.
In the case of `Cc1c(C(F)(F)F)c(=O)[nH]c2cc(CN3CCN(c4cc5c(cn4)C(=O)N(C)C5)CC3)cnc12` [Compound 84, 4-methyl-7-((4-(2-methyl-3-oxo-2,3-dihydro-1H-pyrrolo[3,4-c]pyridin-6-yl)piperazin-1-yl)methyl)-3-(trifluoromethyl)-1,5-naphthyridin-2(1H)-one], in series [6], the intrinsic clearance (microsomal CLint) at 1 µM is 0.72 µL/min/mg.
`CNC(=O)c1ccc(N2CCN(Cc3cnc4c(C)c(C(F)(F)F)c(=O)[nH]c4c3)C(C)C2)cn1` (stereo not shown) [Compound 11, N-methyl-5-(3-methyl-4-((8-methyl-6-oxo-7-(trifluoromethyl)-5,6-dihydro-1,5-naphthyridin-3-yl)methyl)piperazin-1-yl)picolinamide]: in series [1], the IC50 was found to be 0.96 nM. In addition, the IC50 in series [2] (proliferation, 7 days) was 28.5 nM. In series [5], this compound had an AUC(0-inf) of 1500 µg·h/mL, a Cmax of 55900 ng/mL and a half-life of 18.9 h.
Regarding `CNC(=O)c1ccc(C2CCN(Cc3cnc4c(C)c(C(F)(F)F)c(=O)[nH]c4c3)CC2)cn1` [Compound 71, N-methyl-5-(1-((8-methyl-6-oxo-7-(trifluoromethyl)-5,6-dihydro-1,5-naphthyridin-3-yl)methyl)piperidin-4-yl)picolinamide], in series [2] (proliferation, 7 days), the IC50 was 8.13 nM.
As for `CNC(=O)c1ccc(N2CCN(Cc3cnc4c(C)c(C(F)(F)F)c(=O)[nH]c4c3)C[C@@H]2C)cn1` [Compound 53, (S)—N-methyl-5-(2-methyl-4-((8-methyl-6-oxo-7-(trifluoromethyl)-5,6-dihydro-1,5-naphthyridin-3-yl)methyl)piperazin-1-yl)picolinamide], in series [2] (proliferation, 7 days), the IC50 is 13.6 nM.
